Test results as given in patent US7501281B2, “Compositions, methods and kits related to thrombin, Notch signaling and stamatogenesis and growth of stem cells” (Maine Medical Center Research Institute, priority 2003, dated 2009).

Assays:
[1] = system: FGF1 transcript in NIH 3T3 and Swiss 3T3 cells; experiment: Nuclear run-on analysis of FGF1 transcription; assay type: cell-based, murine
Protocol: Approximately either 1×10^7 Swiss or NIH 3T3 cells were harvested and washed using ice-cold 50 mM sodium phosphate buffer, pH 7.0 containing 15 mM NaCl. Cell pellets were lysed in 4 ml of ice-cold 10 mM Tris-HCl, pH 7.5, containing 3 mM CaCl2, 3 mM MgCl2, 10 mM NaCl, and 0.5% NP-40. The nuclear pellet was resuspended in glycerol storage buffer (50 mM Tris-HCl, pH 8.3 containing 40% glycerol, 5 mM MgCl2 and 0.1 mM EDTA), the nuclei were snap frozen, and stored in liquid nitrogen. For run-on transcription, 200 μl aliquots of the frozen nuclei were added to 200 μl of reaction buffer (10 mM Tris-HCl, pH 8.3 containing 5 mM MgCl2, 300 mM KCl, 5 mM DTT, 1 mM each of ATP, CTP, and GTP, 40 units of RNase inhibitor and 100 μCi of [^32P]UTP (800 Ci/mmol; Amersham), and incubated at 30° C. for 30 minutes. The mixture was treated with 100 units of RNase-free DNase I for 30 minutes at 30° C. and then incubated with 400 μl of 20 mM Tris-HCl, pH 7.5, containing 2% SDS, 10 mM EDTA, […] proteinase K for 30 minutes at 42° C. Following phenol/CHCl3 extraction, the labelled transcripts were precipitated with isopropanol and dissolved in 50 μl of 10 mM TES, pH 7.5, containing 10 mM EDTA and 0.2% SDS. Linearized plasmid constructs (0.4 μg/dot) containing either the fgfl or gapdh cDNA were alkali denatured and immobilized onto a Hybond-N^+ membrane (Amersham). Hybridization was performed in 1 ml of ULTRA Hyb (Ambion), with 5×10^6 cpm of radiolabeled RNA and yeast RNA (10 μg/ml) for 18 hours with shaking at 50° C. Membranes were washed twice with washing buffer (2×SSC containing 0.1% SDS) at 50° C. and analyzed using a phosphoimager (Molecular Dynamics).

Delta1 = molecular target: T1, Delta1 (Homo sapiens, UniProt O00548); experiment: Thrombin cleavage of in vitro translation product of Delta1; assay type: biochemical
T1 construct: made in house
T1 sequence (O00548 18-723): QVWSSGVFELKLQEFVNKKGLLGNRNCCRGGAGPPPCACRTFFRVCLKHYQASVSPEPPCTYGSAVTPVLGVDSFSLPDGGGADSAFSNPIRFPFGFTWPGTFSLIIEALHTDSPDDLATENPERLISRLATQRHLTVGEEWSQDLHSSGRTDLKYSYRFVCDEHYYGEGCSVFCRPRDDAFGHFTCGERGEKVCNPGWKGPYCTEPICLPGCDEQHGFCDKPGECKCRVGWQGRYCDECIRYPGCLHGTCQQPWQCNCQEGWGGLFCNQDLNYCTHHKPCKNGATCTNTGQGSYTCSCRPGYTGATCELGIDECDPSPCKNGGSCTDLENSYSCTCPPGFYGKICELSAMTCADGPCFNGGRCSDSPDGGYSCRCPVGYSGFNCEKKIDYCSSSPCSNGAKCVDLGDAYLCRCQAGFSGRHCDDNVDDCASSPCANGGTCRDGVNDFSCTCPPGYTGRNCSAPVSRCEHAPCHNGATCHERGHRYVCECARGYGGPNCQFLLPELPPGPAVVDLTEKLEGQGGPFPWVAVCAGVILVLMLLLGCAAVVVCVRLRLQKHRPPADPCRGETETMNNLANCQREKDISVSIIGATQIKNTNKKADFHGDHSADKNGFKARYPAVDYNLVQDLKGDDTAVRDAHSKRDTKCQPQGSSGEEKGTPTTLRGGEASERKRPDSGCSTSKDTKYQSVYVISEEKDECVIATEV

Thrombin
induction of FGF1 transcript ([1]; 10 μg/ml α-thrombin or 5 μM TRAP): able to induce | time at which FGF1 mRNA was initially detected ([1]; after addition of thrombin): 15 min | time to plateau of FGF1 mRNA ([1]; after addition of thrombin): ≤ 2 h | proteolytic modification of Delta1 translation product (Delta1): unable to proteolytically modify
